From patent US11472807B2, “Purine derivatives for use as medicament and for use in treating neurodegenerative or neuro-inflammatory disorders” (COMMISSARIAT À L'ENERGIE ATOMIQUE ET AUX ENERGIES …, priority 2017, dated 2022)
Like-named read-outs stand apart in the source and are kept apart here.

Assays:
[1] = Pharmacokinetics of Aftin-5 in mice after single PO or IP dose; type: in vivo; conditions: for Tmax / Cmax / Kp: mouse; for Kp: brain/plasma, read-out: brain/plasma partition coefficient (Kpbrain/plasma)
From the text: In addition, pharmacokinetic experiments of Aftin-5 in mice confirmed the ability of the compound to reach the brain. The PK parameters are plotted in Table 3 below.
The brain/plasma partition coefficient (Kpbrain/plasma) was about 0.014 and 0.033 for oral and IP administration, respectively.

IL-1β = IL-1β mRNA in OHSC (RT-qPCR); type: cell-based, mice; conditions: 50 μM, 10 days, vs vehicle, P<0.001
Protocol: (§1) FIG. 10. Plots illustrating the effect of Aftin-5 on relative mRNA expression levels of interleukin-1-beta (IL-1β; (A)), interleukin-6 (IL-6; (B)), TNF-alpha (TNFα; (C)) and interleukin-10 (IL-10; (D)) in organotypic hippocampal slice cultures (OHSC). OHSC culture media […] were replaced by incubation medium containing Aftin-5 (50 μM; A50) or vehicle (0.1% DMSO; Veh). 10 days later, total mRNA in lysate was isolated and purified, cDNAs were then synthesized from […] of total mRNA. cDNAs were amplified by quantitative RT-PCR and the relative expression of specific genes was normalized to the housekeeping gene HPRT1 (2^−ΔCt). Mann-Whitney tests were performed and ***p<0.001 indicates significant differences between Aftin-5 and control conditions. Data expressed as means+/−SEM from q=3 independent experiments with n=4-6 inserts/condition and 10 slices/insert. […]
(§2) The impact of Aftin-5 on gene expression of different biomarkers was determined by measuring mRNA levels of selected BDNF, CREB, PS95, INS Receptor/IGF-1 receptor, IL-1β, IL-6 in OHSC treated chronically with Aftin-5 or in a total brain from mice exposed to Aftin-5 at either 8 or 30 mg/Kg. […] Threshold cycles (Ct) of target gene and cyclophilin A (Ppia−control housekeeping gene) were recorded and gene expression was calculated as 2^−ΔΔCt(ΔΔCt=ΔCttreated−ΔCtcontrol, ΔCt=Cttarget−CtPpia). […]

IL-6 = IL-6 mRNA in OHSC (RT-qPCR); type: cell-based, mice; conditions: 50 μM, 10 days, vs vehicle, P=0.06
Protocol: as §1, §2

TNF-α = TNF-α mRNA in OHSC (RT-qPCR); type: cell-based, mice; conditions: 50 μM, 10 days
Protocol: as §1, §2

BDNF = BDNF mRNA in OHSC (RT-qPCR); type: cell-based; conditions: OHSCs from WT mice, 50 μM, 10 days
Protocol: FIG. 15. Plots illustrating the effect of Aftin-5 on relative mRNA expression levels of Long Term Potentialisation (LTP) biomarkers, i.e CREB (A), PSD95 (B) and BDNF (C) in C57B16J OHSC mice treated chronically with Aftin-5. OHSC culture media of OHSC were replaced by incubation medium containing Aftin-5 (50 μM; A50) or vehicle (0.1% DMSO; Veh). 10 days later, total mRNA in lysate was isolated and purified, cDNAs were then synthesized from […] of total mRNA. cDNAs were amplified by quantitative RT-PCR and the relative expression of specific genes was normalized to the housekeeping gene HPRT1 (2^—ΔCt). […] Data expressed as means+/−SEM from q=3 independent experiments with n=4-6 inserts/condition and 10 slices/insert. […]
The impact of Aftin-5 on gene expression of different biomarkers was determined by measuring mRNA levels of selected BDNF, CREB, PS95, INS Receptor/IGF-1 receptor, IL-1β, IL-6 in OHSC treated chronically with Aftin-5 or in a total brain from mice exposed to Aftin-5 at either 8 or 30 mg/Kg. […] RNA concentration was measured spectrophotometrically at 260 nm in a NanoDrop 2000c (Thermo Scientific, Villebon-sur-Yvette, France) (sample A260 nm/A280 nm ratios over 1.8 indicated reduced genomic DNA contamination). cDNAs were synthesized from 0.5 μg of total RNA with RT^2 First Strand kit (Qiagen, Courtaboeuf, France) according to the manufacturer's protocol and stored at −80° C. […]

CREB, BDNF, PSD95 = experiment: mRNA of CREB, BDNF, PSD95 in brains of chronically treated WT mice; type: in vivo; conditions: brains from WT mice treated chronically
Protocol: The impact of Aftin-5 on gene expression of different biomarkers was determined by measuring mRNA levels of selected BDNF, CREB, PS95, INS Receptor/IGF-1 receptor, IL-1β, IL-6 in OHSC treated chronically with Aftin-5 or in a total brain from mice exposed to Aftin-5 at either 8 or 30 mg/Kg. Total RNA was extracted with TRIzol@ reagent and purified on RNeasy® minikit columns (Qiagen, Courtaboeuf, France). Briefly, cells were lysed with 0.5 mL of TRIzol@ reagent by pipetting. After addition of 100 μL of chloroform, mixtures were centrifuged at 10000 g for 15 min at 4° C., supernatants mixed with 600 μL of 70% ethanol and loaded onto RNeasy® columns. Total RNA was washed and eluted with RNase-free water according to manufacturer's protocol and stored at −80° C. RNA concentration was measured spectrophotometrically at 260 nm in a NanoDrop 2000c (Thermo Scientific, Villebon-sur-Yvette, France) (sample A260 nm/A280 nm ratios over 1.8 indicated reduced genomic DNA contamination). cDNAs were synthesized from 0.5 μg of total RNA with RT^2 First Strand kit (Qiagen, Courtaboeuf, France) according to the manufacturer's protocol and stored at −80° C. […] Threshold cycles (Ct) of target gene and cyclophilin A (Ppia−control housekeeping gene) were recorded and gene expression was calculated as 2^−ΔΔCt(ΔΔCt=ΔCttreated−ΔCtcontrol, ΔCt=Cttarget−CtPpia). […]

GSK-3β = GSK-3β activity in organotypic slice cultures from transgenic mice overexpressing phosphorylated Tau; type: cell-based
From the text: Unpredictably, Aftin-5 is shown herein to efficiently promote an attenuation of the phosphorylation of Tau protein (see example 5).

[2] = tested on: in vitro cell based rat BBB model
[3] = plasma, IP single dose 10 mg/kg

AUC0-∞ ([1]; brain, IP single dose 10 mg/kg): 441.51 nMh
t^1/2 ([1]; brain, IP single dose 10 mg/kg): 0.6 h
AUC0-∞ ([1]; brain, PO single dose 5 mg/kg): 115.25 nMh
t^1/2 ([1]; brain, PO single dose 5 mg/kg): 1.8 h
Tmax ([1]; brain, IP single dose 10 mg/kg): 4.98 min
Tmax ([1]; brain, PO single dose 5 mg/kg): 15 min
Cmax ([1]; brain, ip, 10 mg/kg, IP single dose 10 mg/kg): ~807 nM
Cmax ([1]; brain, po, 5 mg/kg, PO single dose 5 mg/kg): ~44.9 nM
Kp ([1]; IP administration, single dose 10 mg/kg): ~0.033
Kp ([1]; oral administration, single dose 5 mg/kg): ~0.014
Tmax [1, 3]: 4.98 min
Tmax ([1]; plasma, PO single dose 5 mg/kg): 15 min
Cmax ([1]; plasma, ip, 10 mg/kg, IP single dose 10 mg/kg): 22600 nM
Cmax ([1]; plasma, po, 5 mg/kg, PO single dose 5 mg/kg): 3890 nM
AUC0-∞ [1, 3]: 13577.63 nMh
t^1/2 [1, 3]: ~1.2 h
Papp compared to Papp value of memantine [2]: not significantly different
Structure (SMILES): CC[C@H](CO)Nc1nc(N(C)c2ccccc2)c2ncn(C(C)C)c2n1 [Aftin-5]
IL-1β-mRNA synthesis (IL-1β): significantly decrease
IL-6 mRNA synthesis (IL-6): do not achieve significance
TNF-α mRNA synthesis (TNF-α): no changes
BDNF mRNA (BDNF): transcriptional upregulation
mRNA for CREB, BDNF as well as for PSD95 in brain (CREB, BDNF, PSD95): high mRNA
activity of GSK-3β (GSK-3β): reduces
